Results reported in paper PMC5327470, “Discovery and Optimization of Novel 5-Indolyl-7-arylimidazo[1,2-a]pyridine-8-carbonitrile Derivatives as Potent Antitubulin Agents Targeting Colchicine-binding Site” (Scientific Reports, 2017).

Columns and labels:
[1] = test system: HT-29 (human colon cancer); assay: MTT antiproliferative assay, HT-29; type: cell-based; details: for IC50: Homo sapiens, HT-29, MTT, 72 h, mean ± SD, read-out: IC50 (μM) ±SD HT29
Description: (§1) To evaluate the antiproliferative activity, all synthesized derivatives (5a–5v and 7a–7h) were investigated for their activity in vitro against a panel of cancer cell lines including HT-29 (human colon cancer), H460 (human lung cancer), A549 (human lung carcinoma), MKN-45 (human gastric cancer) and SMMC-7721 (human liver cancer) by MTT assay. CA-4 and Crolibulin were served as positive control, and the results expressed as half-maximal inhibitory concentration (IC50). IC50 values are the concentrations that cause 50% inhibition of cancer cell growth (μM). Data represent the mean values ± standard deviation (SD) of independent experiments performed in triplicate.
(§2) Cell lines and culture conditions.The human colon carcinoma cell line HT-29, the human pulmonary carcinoma cell line A549, the human gastric carcinoma cell line MKN-45, the human breast cancer cell line MDA-MB-231 and human heptocarcinoma cellline SMMC-7721were cultured in RPMI-1640 mediumcontaining 10% FBS, 100 U/mL streptomycin and 100 U/mL penicillinat 37 °C in humidified atmosphere with 5% CO2. All of the cells were purchased from the American Type Culture Collection (ATCC, Manassas, VA).
(§3) The antiproliferative activities in vitro of Crolibulin and all the target compounds were determined by an MTT assay. Briefly, cells were seeded into 96-well plates at a density of 1–3 × 10^4/well (depends on the cell growth rate). 24 h later, triplicate wells were treated with media and the agents. After 72 h ofincubation at 37 °C in 5% CO2, the drug containing medium wasremoved and replaced by 100 mL of fresh medium with 5 mg/mLMTT solution. After 4 h of incubation, the medium with MTT was removed, and […] of DMSO was added to each well. The plates were gently agitated until the purple formazan crystals were dissolved, and the OD490 was determinedusing a microplate reader (MK3, Thermo, Germany). The data were calculated and plotted as the percent viability compared to the control. The 50% inhibitory concentration (IC50) was defined as theconcentration that reduced the absorbance of the untreated wells by 50% of the vehicle in the MTT assay.

[2] = test system: MKN-45 (human gastric cancer); assay: MTT antiproliferative assay, MKN-45; type: cell-based; details: 72 h, mean ± SD, read-out: IC50 (μM) ±SD MKN45
Description: as §1, §2, §3

[3] = test system: SMMC-7721 (human liver cancer); assay: MTT antiproliferative assay, SMMC-7721; type: cell-based; details: 72 h, mean ± SD
Description: Data represent the mean values ± standard deviation (SD) of independent experiments performed in triplicate.
All of the cells were purchased from the American Type Culture Collection (ATCC, Manassas, VA).
as §3, with “After 72 h ofincubation at 37 °C in 5% CO2, the drug containing medium wasremoved and replaced by 100 mL of fresh medium with 5 mg/mLMTT solution.” left out, “control.” for “control. The 50% inhibitory concentration (IC50) was defined as theconcentration that reduced the absorbance of the untreated wells by 50% of the vehicle in the MTT assay.”

[4] = test system: A549 (human lung carcinoma); assay: MTT antiproliferative assay, A549; type: cell-based; details: 72 h, mean ± SD
Description: as §1, §2, §3

H460 (human lung cancer) = assay: MTT antiproliferative assay, H460; type: cell-based; details: for IC50: MTT, 72 h, mean ± SD
Description: as §1, §3

| IC50 [1] [µM] | IC50 [2] [µM] | IC50 [3] [µM] | IC50 [4] [µM] | melting point [°C] | IC50 (H460 (human lung cancer); Homo sapiens, NCI-H460, 72 h) [µM] | IC50 (H460 (human lung cancer)) [µM] | Structure (SMILES) | fold more potent than 5a on HT-29 cell ([1]; ratio of IC50 values) | IC50 (H460 (human lung cancer); Homo sapiens, NCI-H460) [µM] | fold more active in H460 than 5h (H460 (human lung cancer); ratio of IC50 values) |
| --- | --- | --- | --- | --- | --- | --- | --- | --- | --- | --- |
| 0.46 ± 0.03 | 1.74 ± 0.15 | 27.4 ± 2.32 | 1.75 ± 0.13 | 302.7 to 304.8 |  |  | COc1cc(OC)c(OC)c(-c2cc(-c3c[nH]c4ccccc34)n3ccnc3c2C#N)c1 [5q, 5-(1H-indol-3-yl)-7-(2,3,5-trimethoxyphenyl)imidazo[1,2-a]pyridine-8-carbonitrile] |  |  |  |
| 0.26 ± 0.03 | 7.35 ± 0.54 | 56.3 ± 4.87 | 3.57 ± 0.23 | 320.8 to 323.2 | 2.13 ± 0.24 |  | N#Cc1c(-c2ccc(F)cc2Cl)cc(-c2c[nH]c3ccc(Br)cc23)n2ccnc12 [5v, 5-(5-bromo-1H-indol-3-yl)-7-(2-chloro-4-fluorophenyl)imidazo[1,2-a]pyridine-8-carbonitrile] |  |  |  |
| 0.19 ± 0.02 | 19.2 ± 1.35 | 42.6 ± 4.12 | 8.79 ± 0.62 | 195 to 199.7 | 1.32 ± 0.12 |  | N#Cc1c(-c2ccc(F)cc2Cl)cc(-c2c[nH]c3ccccc23)n2cc(CN3CCCC3)nc12 [7g, 7-(2-chloro-4-fluorophenyl)-5-(1H-indol-3-yl)-2-(pyrrolidin-1-ylmethyl)imidazo[1,2-a]pyridine-8-carbonitrile] |  |  |  |
| 0.56 ± 0.07 | 1.63 ± 0.28 | 11.3 ± 2.15 | 20.3 ± 2.32 | 185.7 to 187.9 | 0.85 ± 0.06 |  | CC1CCN(Cc2cn3c(-c4c[nH]c5ccccc45)cc(-c4ccc(F)cc4Cl)c(C#N)c3n2)CC1 [7f, 7-(2-chloro-4-fluorophenyl)-5-(1H-indol-3-yl)-2-((4-methylpiperidin-1-yl)methyl)imidazo[1,2-a]pyridine-8-carbonitrile] |  |  |  |
| 1.16 ± 0.13 | 14.5 ± 2.43 | 97.2 ± 6.54 | 80.2 ± 9.68 | 327.7 to 330 | 9.61 ± 0.74 |  | COc1cc(-c2cc(-c3c[nH]c4ccccc34)n3ccnc3c2C#N)c(Br)cc1O [5n, 7-(2-bromo-4-hydroxy-5-methoxyphenyl)-5-(1H-indol-3-yl)imidazo[1,2-a]pyridine-8-carbonitrile] |  |  |  |
| 2.86 ± 0.38 | 31.2 ± 5.79 | > 100 | 67.3 ± 4.59 | 301.7 to 304.6 | 17.2 ± 1.34 |  | N#Cc1c(-c2ccccc2F)cc(-c2c[nH]c3ccc(Br)cc23)n2ccnc12 [5s, 5-(5-bromo-1H-indol-3-yl)-7-(2-fluorophenyl)imidazo[1,2-a]pyridine-8-carbonitrile] |  |  |  |
| 0.92 ± 0.08 | 10.7 ± 1.85 | 80.2 ± 7.54 | > 100 | 309.2 to 312.3 | 1.07 ± 0.12 |  | N#Cc1c(-c2ccc(O)c(Br)c2)cc(-c2c[nH]c3ccccc23)n2ccnc12 [5l, 7-(3-bromo-4-hydroxyphenyl)-5-(1H-indol-3-yl)imidazo[1,2-a]pyridine-8-carbonitrile] |  |  |  |
| 0.92 ± 0.14 | 36.3 ± 5.15 | 28.7 ± 1.79 | 16.9 ± 1.98 | 201.3 to 203.5 | 1.27 ± 0.14 |  | N#Cc1c(-c2ccc(F)cc2Cl)cc(-c2c[nH]c3ccccc23)n2cc(CN3CCOCC3)nc12 [7h, 7-(2-chloro-4-fluorophenyl)-5-(1H-indol-3-yl)-2-(morpholinomethyl)imidazo[1,2-a]pyridine-8-carbonitrile] |  |  |  |
| 0.12 ± 0.02 | 2.76 ± 0.47 | 53.5 ± 7.76 | 8.54 ± 0.93 | 307.8 to 309.5 | 1.16 | 0.95 ± 0.03 | N#Cc1c(-c2ccc(Br)cc2)cc(-c2c[nH]c3ccccc23)n2ccnc12 [5h, 7-(4-bromophenyl)-5-(1H-indol-3-yl)imidazo[1,2-a]pyridine-8-carbonitrile] | about 2.5 fold |  |  |
| 1.74 ± 0.14 | 7.38 ± 0.63 | > 100 | 67.3 ± 7.43 | 337.9 to 342.4 | 11.4 ± 1.68 |  | N#Cc1c(-c2ccccc2)cc(-c2c[nH]c3ccc(Br)cc23)n2ccnc12 [5r, 5-(5-bromo-1H-indol-3-yl)-7-phenylimidazo[1,2-a]pyridine-8-carbonitrile] |  |  |  |
| 0.04 ± 0.001 | 12.2 ± 1.89 | 27 ± 3.06 | 5.34 ± 0.67 | 219.5 to 223.5 | 1.29 ± 0.21 |  | CNCc1cn2c(-c3c[nH]c4ccccc34)cc(-c3ccc(F)cc3Cl)c(C#N)c2n1 [7a, 7-(2-chloro-4-fluorophenyl)-5-(1H-indol-3-yl)-2-((methylamino)methyl)imidazo[1,2-a]pyridine-8-carbonitrile] |  |  |  |
| 0.19 ± 0.02 | 16.6 ± 1.13 | 22.1 ± 3.41 | 7.53 ± 0.63 | 175.4 to 178.4 | 0.71 ± 0.05 |  | CN(C)Cc1cn2c(-c3c[nH]c4ccccc34)cc(-c3ccc(F)cc3Cl)c(C#N)c2n1 [7d, 7-(2-chloro-4-fluorophenyl)-2-((dimethylamino)methyl)-5-(1H-indol-3-yl)imidazo[1,2-a]pyridine-8-carbonitrile] |  |  |  |
| 2.13 ± 0.12 | 18.3 ± 2.13 | 20.5 ± 3.53 | 2.45 ± 0.37 | 290.5 to 294.2 | 1.15 ± 0.13 |  | N#Cc1c(-c2cc(Br)c(O)c(Br)c2)cc(-c2c[nH]c3ccccc23)n2ccnc12 [5m, 7-(3,5-dibromo-4-hydroxyphenyl)-5-(1H-indol-3-yl)imidazo[1,2-a]pyridine-8-carbonitrile] |  |  |  |
| 0.33 ± 0.04 | 22.4 ± 2.51 | 36.7 ± 4.92 | 6.18 ± 0.71 | 222.2 to 225.3 | 0.96 ± 0.07 |  | CC(C)NCc1cn2c(-c3c[nH]c4ccccc34)cc(-c3ccc(F)cc3Cl)c(C#N)c2n1 [7c, 7-(2-chloro-4-fluorophenyl)-5-(1H-indol-3-yl)-2-((isopropylamino)methyl)imidazo[1,2-a]pyridine-8-carbonitrile] |  |  |  |
| 0.03 ± 0.009 | 1.43 ± 0.12 | 18.5 ± 2.76 |  | 341.6 to 343.8 | 0.076 ± 0.01 |  | N#Cc1c(-c2ccc(F)c(F)c2)cc(-c2c[nH]c3ccccc23)n2ccnc12 [5j, 7-(3,4-difluorophenyl)-5-(1H-indol-3-yl)imidazo[1,2-a]pyridine-8-carbonitrile] |  |  |  |
| > 100 | 64 ± 7.14 | 79.2 ± 6.87 | > 100 | 321.9 to 324.4 | 6.89 ± 0.67 |  | N#Cc1c(-c2cccc(Br)c2)cc(-c2c[nH]c3ccccc23)n2ccnc12 [5g, 7-(3-bromophenyl)-5-(1H-indol-3-yl)imidazo[1,2-a]pyridine-8-carbonitrile] |  |  |  |
| 0.24 ± 0.01 | 1.24 ± 0.08 | 76.2 ± 8.98 | 12.2 ± 1.89 | 316.5 to 318.7 | 17.5 ± 1.53 |  | COc1cccc(-c2cc(-c3c[nH]c4ccccc34)n3ccnc3c2C#N)c1 [5c, 5-(1H-indol-3-yl)-7-(3-methoxyphenyl)imidazo[1,2-a]pyridine-8-carbonitrile] |  |  |  |
| 0.73 ± 0.09 | 38.1 ± 4.42 | 79.3 ± 5.14 | 21.4 ± 2.58 | 317.2 to 321.8 | 1.93 ± 0.33 |  | N#Cc1c(-c2ccc(Br)cc2)cc(-c2c[nH]c3ccc(Br)cc23)n2ccnc12 [5u, 5-(5-bromo-1H-indol-3-yl)-7-(4-bromophenyl)imidazo[1,2-a]pyridine-8-carbonitrile] |  |  |  |

| Structure (SMILES) | IC50 [1] [µM] | IC50 [2] [µM] | IC50 [3] [µM] | IC50 [4] [µM] | melting point [°C] | IC50 (H460 (human lung cancer); Homo sapiens, NCI-H460, 72 h) [µM] | IC50 (H460 (human lung cancer)) [µM] | fold more potent than 5a on HT-29 cell ([1]; ratio of IC50 values) | IC50 (H460 (human lung cancer); Homo sapiens, NCI-H460) [µM] | fold more active in H460 than 5h (H460 (human lung cancer); ratio of IC50 values) |
| --- | --- | --- | --- | --- | --- | --- | --- | --- | --- | --- |
| COc1cc([C@H]2C(C#N)=C(N)Oc3c2ccc(N)c3N)cc(Br)c1OC [Crolibulin, reference compound] | 0.52 ± 0.02 | 0.17 ± 0.03 |  |  |  |  |  |  | 0.03 ± 0.007 |  |
| N#Cc1c(-c2ccc(F)cc2F)cc(-c2c[nH]c3ccccc23)n2ccnc12 [5i, 7-(2,4-difluorophenyl)-5-(1H-indol-3-yl)imidazo[1,2-a]pyridine-8-carbonitrile] | 0.08 ± 0.001 | 0.03 ± 0.006 | 13.6 ± 2.38 | 0.12 ± 0.03 | 340.3 to 346.2 | 0.04 ± 0.001 |  |  |  | about 29 fold |
